From patent US20220125746A1, “METHOD OF PREVENTING OR TREATING TREATMENT-INDUCED GASTROINTESTINAL INJURY” (priority 2019, published 2022)
Counter-ions that a name gives are not always drawn.

Columns and labels:
[1] = test system: colon cancer cell line DLD1; experiment: PUMA-induced apoptosis inhibition in DLD1
Protocol: (§2) PUMAi was added to cells at 25 uM at the same time as CPT.
(§3) A minimum of 300 cells per treatment were analyzed in triplicate.

[2] = test system: colon cancer cell line HCT-116; experiment: PUMA-induced apoptosis inhibition in HCT-116
Protocol: as §2, §3

C57BL/6J mice = experiment: Survival and GI injury after three daily doses of CPT-11; assay type: in vivo, mouse; settings: for lethality: three consecutive daily doses, C57BL/6J WT mice
Excerpt: (§1) Immediately after sacrifice, about 10-cm portion of the jejunum was removed and carefully rinsed with ice-cold saline. The tissue was opened longitudinally and tacked to a foam board for fixation overnight in 10% formalin. Tissues were then rolled up into “swiss rolls” and embedded in paraffin. For tumor analysis, flank tumors were removed, measured, and cut into pieces for either formalin fixation or flash freezing in a dry ice/ethanol bath. Tissue sections (5 um) were deparaffinized and rehydrated through graded ethanols. Histological analysis was performed by hematoxylin and eosin (H&E) staining.
; CPT-11). […] . […] BH3-only proteins BIM and NOXA were not induced by CPT-11 or affected by Puma KO (FIG. 8F). […] . […] . Histological analysis confirmed lethal GI injury in WT and p53 KO mice on day 5, showing severe loss of crypts and shortening of villi, which was abrogated in Puma KO mice (FIG. 1F).

LGR5+ stem cells = settings: after six doses of CPT-11
Protocol: WT and Puma KO mice carrying the Lgr5-EGFP-IRES-creERT2 marking allele were treated with CPT-11 and PUMAi over 2 weeks as in FIGS. 5A-5G and analyzed for intestinal phenotypes. (FIG. 6A) GFP (LGR5) immunofluorescence in intestinal crypts. Arrows indicate LGR5^+ (GFP) crypts. Scale bar, 100 um. (FIG. 6B) Quantitation of intestinal crypts containing at least one GFP^+ (LGR5^+) cell. (FIG. 6C) Top: Olfm4 RNA ISH in intestinal crypts. Scale bar, 50 um. Asterisks indicate Olfm4+ crypt cells. Bottom: Percentage of crypts containing at least one Olfm4+ cell. (FIG. 6D) MMP7 immunofluorescence in intestinal crypts. Scale bar, 100 um. (FIG. 6E) Quantitation of MMP7+ crypt cells at the crypt base (CBC region). (FIG. 6F) Top: GFP (LGR5) and MMP7 immunofluorescence in intestinal crypts. Scale bar, 20 um. Asterisks indicate LGR5^+/MMP7^+ cell pairs. Bottom: Quantitation of LGR5^+/MMP7^+ cell pairs per crypt. In (FIG. 6A), (FIG. 6D), and (FIG. 6F), DAPI was used to stain nuclei. In (FIG. 6B), (FIG. 6C), (FIG. 6E), and (FIG. 6F), values are means+SEM; n=3 mice. *P<0.05, **P<0.01, and ***P<0.001 (one-way ANOVA with Tukey post hoc test).
LGR5 (GFP) IF. Sections were deparaffinized and rehydrated through graded ethanols. Antigen retrieval was performed by boiling for 10 minutes in 0.1 M citrate buffer (pH 6.0) with 1 mM EDTA. Non-specific antibody binding was blocked using 20% goat serum (Invitrogen) at room temperature for 30 min. […] Sections were then washed in PBS and mounted with VectaShield+DAPI (Vector Labs).
MMP7 IF. Sections were prepared as described above. Non-specific antibody binding was blocked using 20% chicken serum (Invitrogen) at room temperature for 30 min. Sections were washed in PBS and incubated overnight at 4 °C in a humidified chamber with 1:100 diluted goat anti-MMP7 (AF2967; R&D Systems). […] Sections were then washed in PBS and mounted with VectaShield+DAPI (Vector Labs) for visualization.
LGR5(GFP)/1VIMP7 IF. Sections were prepared as described above. Non-specific antibody binding was blocked using 20% chicken serum (Invitrogen) at room temperature for 30 min. Sections were then stained for GFP as described above, followed by staining for MMP7 as described.
ISH for Olfm4 was carried out with the RNAscope 2.0 BROWN kit (Advanced Cell Diagnostics) according to the manufacturer's instructions. Briefly, tissue sections were baked for 60 min at 60 ÅåC, then deparaffinized in xylene, and rehydrated through graded ethanols. Sections then underwent three pretreatment steps, probe hybridization, six amplification steps, development, and counterstaining.

intestinal crypts = experiment: CPT-11-induced intestinal crypt apoptosis in mice (TUNEL, active caspase-3); settings: single dose 200 mg/kg, WT mice, TUNEL and active caspase-3
Protocol: Puma+/+ (WT) and Puma−/− (Puma KO) mice (52) were generated in-house by heterozygote breeding. WT and Puma KO alleles were genotyped from genomic DNA isolated from tail snips, as described (52). p53−/− (p53 KO) mice were purchased from the Jackson Laboratory. […] All strains are in or have been backcrossed with the C57BL/6 background for more than 10 generations (F10). Mice were housed in microisolator cages in a room illuminated from 07:00 to 19:00 hours (12:12-hour light/dark cycle), with access to water and chow ad libitum.
Rehydrated sections were treated with 3% hydrogen peroxide (immunochemistry only), followed by antigen retrieval for 10 min in boiling 0.1 M citrate buffer (pH 6.0) with 1 mM EDTA. Apoptosis was analyzed by TUNEL staining with the ApopTag Peroxidase In Situ Apoptosis Detection kit (Chemicon International) according to the manufacturer's instructions.
Active caspase 3 IHC. Sections were deparaffinized and rehydrated through graded ethanols. Rehydrated sections were then treated with 3% hydrogen peroxide, followed by antigen retrieval for 10 minutes in boiling 0.1 M citrate buffer (pH 6.0) with 1 mM EDTA. Non-specific antibody binding was blocked using 20% goat serum (Invitrogen) at room temperature for 30 minutes.

[3] = test system: Lewis lung carcinoma (LLC) tumors; experiment: LLC tumor-bearing mice treated with CPT-11 six times over 2 weeks; assay type: in vivo, mouse; settings: LLC tumor experiments
Protocol: For tumor experiments, 4 million LLC cells [American Type Culture Collection (ATCC)] were injected into the flanks of WT and Puma KO mice and allowed to grow for 11 days. Mice were then treated with CPT-11 (200 mg/kg) three times per week for 2 weeks. PUMAi (10 mg/kg) or vehicle control was administered by intraperitoneal injection 2 hours before and 20 hours after each dose of CPT-11. Mice were sacrificed 4 hours after the final CPT-11 treatment.
For tumor experiments, mice were treated with CPT-11 three times per week for two weeks. Mice receiving PUMAi were treated 2 hours before each dose of CPT-11 and 20 hours after. Mice were sacrificed four hours after the final CPT-11 treatment (FIG. 13A). Tumor volumes were measured with calipers and calculated as volume=(length x width2)/2. Mice were 7-9 weeks old, and roughly equal numbers of male and female animals were used. To account for variations in starting body weights, the values in FIGS. 3 and 4 are expressed as a percentage of the respective mouse weights at the time of the first CPT-11 treatment.
as §1
Average villus height was determined by measuring 40 to 50 villi from different locations of the small intestine, from at least three different animals per group, and reported as means A} SEM. Measurements were made from the top of the crypt to the tip of the villus using 100 Å˜H&E images and SPOT 5.1 Advanced software (Diagnostic Instruments Inc.).
Neutrophil IF. Sections were prepared as described above. […] Sections were then incubated with AlexaFluor-594 goat antirat secondary antibodies (1:200; A11007; Invitrogen) for 1 hour at room temperature and counterstained with VectaShield plus DAPI.

[4] = colorectal cancer patients; cited from earlier work
p53 = target: T1, p53 (Rattus norvegicus, UniProt P10361); settings: rats, cited from earlier work
T1 construct: host or cells: rat intestine in vivo

mouse colonic organoids = experiment: Mouse colonic organoids treated with CPT; assay type: cell-based; settings: CPT 500 nM 24 h
Protocol: Fresh mucosal scrapings from 10 cm of jejunum were washed in cold PBS, resuspended in 700 ul of RNA lysis buffer, and homogenized in a Dounce homogenizer. RNA was isolated using the Quick-RNA MiniPrep kit (Zymo Research) according to the manufacturer's instructions. Organoids were freed from Matrigel using Cell Recovery Solution (Corning), as described in, before RNA isolation. Complementary DNA was generated from 2 ug of total RNA from mice or ˜100 ng of total RNA from colonic organoids and was pooled from three mice or three wells of organoid culture per treatment group using SuperScript III reverse transcriptase (Invitrogen) and random primers. Gene expression was normalized to Gapdh. Representative results are shown, and similar results were obtained in at least three independent experiments. Details on mouse and human primers are found in Tables 1 and 2.
Mouse crypt isolation, organoid development, and passage were done as previously described with minor modifications. In brief, the complete culture medium for mouse intestinal organoids was slightly modified as follows: advanced Dulbecco's modified Eagle medium (DMEM)/F12 (12634-010, Invitrogen) was supplemented with 100 units/ml penicillin/0.1 mg/ml streptomycin (Invitrogen), 2 mM GlutaMAX (ThermoFisher), 20% (vol/vol) FBS (S11150, ATLANTA Biologicals), and WRN-conditioned medium (50%, vol/vol). Freshly isolated crypts were cultured with the same medium plus 10 μM Y-27632 (Y0503 Sigma) and 100 μg/ml Primocin (ant-pm-1, InvivoGen). For CPT and PUMAi treatment, intestinal organoids were passaged and re-plated in 25 μL of Matrigel (356231, Corning) in 24-well plates 24 hours before treatment with CPT (0.5 μM, C9911, Sigma-Aldrich) and PUMAi (50 μM) for 24 hours. The CPT-containing medium was replaced with complete medium containing PUMAi (50 μM). Three groups (treatment control, CPT only, and CPT plus PUMAi) were set up. Organoids 100 μm or greater in diameter were enumerated on day 6 after CPT treatment. Similar results were obtained from at least three independent experiments with triplicate wells in each experiment.

T1 sequence (P10361 whole entry): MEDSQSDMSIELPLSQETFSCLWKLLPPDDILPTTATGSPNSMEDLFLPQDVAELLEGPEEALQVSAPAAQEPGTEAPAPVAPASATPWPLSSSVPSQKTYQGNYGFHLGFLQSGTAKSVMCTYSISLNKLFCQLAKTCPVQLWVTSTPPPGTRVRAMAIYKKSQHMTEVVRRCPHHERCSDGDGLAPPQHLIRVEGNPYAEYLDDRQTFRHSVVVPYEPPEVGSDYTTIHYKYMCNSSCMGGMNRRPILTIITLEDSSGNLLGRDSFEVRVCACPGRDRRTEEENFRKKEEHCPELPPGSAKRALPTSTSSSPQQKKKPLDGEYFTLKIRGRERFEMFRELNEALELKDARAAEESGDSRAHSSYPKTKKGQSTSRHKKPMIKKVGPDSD

| SMILES | Apoptosis inhibition of DLD1 [1] | Apoptosis inhibition of HCT-116 [2] | also measured |
| --- | --- | --- | --- |
| Cc1ccc(OCC(=O)N/N=C/c2cccc(O)c2)cc1 [Compound 7b] | −2% (no inhibition) | 21% |  |
| Cc1ccc(OCC(O)CN2CCN(CCO)CC2)cc1C (stereo not drawn) [Compound 21487182] | 61% | 35% |  |
| O=C(CCc1ccccc1)N/N=C/c1cccc(O)c1 [Compound 7d] | 24% | 21% |  |
| CC(C)CNC(=O)c1ccc2c(c1)nc1n2CCN(C(C)(C)CO)C1 [Compound 20722356] | 36% |  |  |
| Cc1ccc(OCC(=O)Nc2ccc(N3CCOCC3)cc2)cc1 [Compound 7e] | 30% | 44% |  |
| COc1cccc(/C=C/NC(=O)CNc2ccc(C)cc2)c1 [Compound 7h] | 30% | 33% |  |
| CCCCc1c(C)nc(N2CCN(CCO)CC2)[nH]c1=O [Compound 20647237] | 21% |  |  |
| COc1cccc(/C=N/NC(=O)COc2cccc(C)c2)c1OC [Compound 7c] | 26% | 21% |  |
| COc1ccc(CCNC(=O)COc2ccc(C)cc2)cc1OC [Compound V1] | 41% | 38% |  |
| N#CCc1ccc(NC(=O)COc2ccc3c(c2)CCC3)cc1 [Compound 7g] | 24% | −17% (no inhibition) |  |
| CCc1ccc(OCC(=O)NCc2ccc3c(c2)OCO3)cc1 [Compound V2] | 39% | 40% |  |
| CCc1c2c(nc3ccc(OC(=O)N4CCC(N5CCCCC5)CC4)cc13)-c1cc3c(c(=O)n1C2)COC(=O)[C@]3(O)CC [CPT-11, irinotecan hydrochloride, reference compound] |  |  | lethality (C57BL/6J mice; 180 mg/kg per day): 30%; lethality (C57BL/6J mice; 215 mg/kg per day): 90%; lethality (C57BL/6J mice; 250 mg/kg per day): 100%; survival at the LD90 of CPT-11, without PUMAi (C57BL/6J mice; CPT-11 215 mg/kg per day x3, WT mice): 10%; drop in Olfm4+ crypts (RNA ISH) (LGR5+ stem cells): 93%; reduction of LGR5+ crypt cells and fraction of LGR5+ crypts (LGR5+ stem cells): more than 90%; time of peak crypt apoptosis (intestinal crypts): 6 h; % mice compieting treatment ([3]; PUMA KO mice): 100% (6/6); % mice compieting treatment ([3]; WT mice): 73% (8/11); patients with severe diarrhea and nausea [4]: more than 50% |
| CC(C)c1ccc(OCC(=O)N/N=C/c2cccnc2)cc1 [Compound 7j] | 26% | −8% (no inhibition) |  |
| Cc1ccc(C(=O)Cn2c3c(sc2=N)CCCC3)cc1 [pifithrin-α] |  |  | delayed cell death and onset of mucositis (p53; CPT-11): did not affect delayed cell death or the onset of mucositis; CPT-11-induced intestinal apoptosis (p53; within the first several hours): reduced CPT-11-induced intestinal apoptosis |
| O=c1[nH]cc(F)c(=O)[nH]1 [Compound 5-FU, 5-fluorouracil] |  |  | patients with chemotherapy induced diarrhea [4]: 50% |
| CC[C@@]1(O)C(=O)OCc2c1cc1n(c2=O)Cc2cc3ccccc3nc2-1 [CPT, camptothecin, reference compound] |  |  | effect of CPT on mouse colonic organoids (mouse colonic organoids): induced growth suppression and activation of caspase-3 |
| Cc1ccc(/C=N/NC(=O)COc2ccc(C)c(C)c2)o1 [Compound 7i] | 26% | 13% |  |
| Cc1ccc(OCC(=O)N/N=C/c2cccc(O)c2)cc1C [Compound 7a] | 41% | 33% |  |
| Cc1ccc(OCC(=O)Nc2ccc(S(N)(=O)=O)cc2)cc1 [Compound 7f] | −2% (no inhibition) | −8% (no inhibition) |  |
